Assay results from article PMC2738925 (Transplantation, 2009).

Biological target: T1, mouse CXCR3 (Mus musculus, UniProt O88410)
T1 sequence (O88410 1-367): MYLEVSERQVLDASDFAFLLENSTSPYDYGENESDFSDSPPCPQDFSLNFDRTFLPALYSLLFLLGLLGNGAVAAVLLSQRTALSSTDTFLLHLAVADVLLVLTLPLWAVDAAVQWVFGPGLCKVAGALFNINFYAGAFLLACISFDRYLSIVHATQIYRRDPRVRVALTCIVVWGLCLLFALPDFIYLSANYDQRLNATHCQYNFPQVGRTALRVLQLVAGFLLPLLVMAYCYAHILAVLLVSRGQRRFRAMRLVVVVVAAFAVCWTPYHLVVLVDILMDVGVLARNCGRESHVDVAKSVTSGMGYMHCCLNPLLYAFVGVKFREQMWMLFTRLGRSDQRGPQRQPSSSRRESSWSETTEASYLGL
Experiment: […]-CXCL10 radioligand displacement on HEK […] cells transfected with mouse CXCR3
Type: cell-based

- IC50: 53 ± 7 nM
Substance: AMG1237845
